Data from patent US20150335662A1, “METHODS FOR DIAGNOSING AND TREATING SEPSIS” (priority 2013, published 2015).

Test system: Cecum Ligation-Puncture (CLP) induced sepsis
Test: Cecum Ligation-Puncture (CLP) induced sepsis in rats, daily calcitriol dosing, survival and body weight
Assay type: in vivo, adult Wistar rats
Conditions: CLP septic rats
Procedure: Then, the optimal dosing of calcitriol as an example of an agent for treatment of sepsis according to the present invention was determined. Anesthesia was induced in adult Wistar rats with 5% isoflurane followed by maintenance on 2.5% isoflurane. The cecum was exteriorized via a small abdominal incision, and was then ligated approximately 3.5 […] distal to the cecum tip. The ligated cecum was punctured twice with a 26-gauge needle and was gently squeezed to extrude some stool. The cecum was replaced in the abdomen and the incision closed with 4-0 silk sutures in two layers, abdominal wall and skin. This Cecum Ligation-Puncture (CLP) procedure induced sepsis in the animals. Sham-operated rats were treated identically, except that the cecum was neither ligated nor punctured.
The rats then received either standard therapy (normal saline (30 ml/kg body weight) given once immediately after the CLP procedure to compensate the third-space fluid loss and imipenem (25 mg/kg body weight) daily subcutaneously) or therapy according to the present invention (calcitriol at 25 ng, 100 ng or 400 ng in peanut oil subcutaneously daily). The rats were monitored daily for body weight and survival.
Referring now to FIG. 9 and FIG. 10, there are shown, respectively, a graph of percent survival as a function of time after induction of sepsis in rats showing the effect of various doses of calcitriol (none, triangles; 25 ng daily, line; 100 ng daily, circles; and 400 ng daily, squares) (FIG. 9); and a graph of body weight in grams as a function of time after induction of sepsis in rats showing the effect of various doses of calcitriol (none, triangles; 25 ng daily, line; 100 ng daily, circles; and 400 ng daily, squares) (FIG. 10).

Structure (SMILES): C=C1C(=CC=C2CCC[C@]3(C)[C@@H]2CC[C@@H]3[C@H](C)CCCC(C)(C)O)C[C@@H](O)C[C@@H]1O [calcitriol, (1R,3S)-5-[2-[(1R,3aR,7aS)-1-[(2R)-6-hydroxy-6-methyl-heptan-2-yl]-7a-methyl-2,3,3a,5,6,7-hexahydro-1H-inden-4-ylidene]ethylidene]-4-methylidene-cyclohexane-1,3-diol]
- signs of hypercalcemia (400 ng daily subcutaneously): typical signs of hypercalcemia
- effect on survival (400 ng daily subcutaneously, FIG. 9): negatively affected
- effect on body weight (400 ng daily subcutaneously, FIG. 10): negatively affected
- optimal dose for survival (calcitriol 25, 100 or 400 ng in peanut oil subcutaneously daily, FIG. 9): 100 ng daily
- optimal dose for body weight (calcitriol 25, 100 or 400 ng in peanut oil subcutaneously daily, FIG. 10): 100 ng daily
